This is an account of results in US9133204B2, “5-membered heterocyclic amides and related compounds” (H. Lundbeck A/S, priority 2007, dated 2015).

One experiment deals with T1, P2X7 receptor (Homo sapiens, UniProt Q99572).
T1 construct: host or cells: SH-SY5Y
T1 sequence (Q99572 1-595): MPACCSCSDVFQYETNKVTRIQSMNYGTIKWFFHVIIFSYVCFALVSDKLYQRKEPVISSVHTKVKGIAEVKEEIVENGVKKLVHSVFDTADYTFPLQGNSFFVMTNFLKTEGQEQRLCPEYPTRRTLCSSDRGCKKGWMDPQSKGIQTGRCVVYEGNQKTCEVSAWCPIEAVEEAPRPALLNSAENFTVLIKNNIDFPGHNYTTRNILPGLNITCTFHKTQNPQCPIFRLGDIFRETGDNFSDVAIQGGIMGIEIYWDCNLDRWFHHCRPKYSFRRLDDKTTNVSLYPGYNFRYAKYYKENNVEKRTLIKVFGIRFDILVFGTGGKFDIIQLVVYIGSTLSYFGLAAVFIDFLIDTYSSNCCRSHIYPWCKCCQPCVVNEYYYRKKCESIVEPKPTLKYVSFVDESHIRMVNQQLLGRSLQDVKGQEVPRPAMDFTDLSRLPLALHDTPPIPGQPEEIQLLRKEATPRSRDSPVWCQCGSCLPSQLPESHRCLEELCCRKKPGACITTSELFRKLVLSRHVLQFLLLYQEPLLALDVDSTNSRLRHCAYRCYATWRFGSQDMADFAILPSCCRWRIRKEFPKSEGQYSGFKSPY
The experiment can be described thus: High throughput P2X7 calcium mobilization assay (Example 4A). Format: cell-based. The note with it: SH-SY5Y cells; 50% decrease in fluorescence response of cells exposed to 80 μM BzATP; Table I. The procedure:
A. High Throughput Assay of P2X7 Receptors
SH-SY5Y cells, ATCC Number CRL-2266, (American Type Culture Collection, Manassas, Va.) are cultured under DMEM/High medium supplemented with 10% FBS, and 10 mM HEPES (Invitrogen Corp., Carlsbad, Calif.) in 5% CO2 and at 37° C. One day prior to the experiment, cells are plated at a density of 100,000 cells/well in a 96 well black/clear TC plate (Corning® Costar®, Sigma-Aldrich Co., St. Louis, Mo.). At the beginning of the experiment, the culture medium is removed and cells are incubated with 50 μL of 2.3 μM Fluo-4 AM dye (Invitrogen Corp.) in the assay solution (5 mM KCl, 9.6 mM NaH2PO4.H2O, 25 mM HEPES, 280 mM sucrose, 5 mM glucose, and 0.5 mM CaCl2; pH is adjusted to 7.4 with NaOH) for an hour at 37° C. After one hour dye incubation, wells are rinsed once with 50 μL assay solution, and are then incubated for an hour at room temperature with 100 μL assay solution containing the test compound. The final concentration of test compound generally ranges from 1 to 2500 nM; for positive control cells, no test compound is added. After the one hour incubation, plates are transferred to a FLIPR^TETRA instrument (Molecular Devices, Sunnyvale, Calif.) for calcium mobilization analysis.
For determination of antagonist activity, 50 μL, of P2X7 agonist (2′(3)-O-(4-benzoyl-benzoyl)adenosine 5′-triphosephate (BzATP; Sigma-Aldrich) in the assay solution is transferred using the FLIPR into the plate, such that the final agonist concentration is 80 μM (about EC50). In negative control cells, 50 μL of assay solution without agonist is added at this stage. The peak fluorescence signal over a 2 minute period is then measured.
First, the average maximum relative fluorescent unit (RFU) response from the negative control wells (no agonist) is subtracted from the maximum response detected for each of the other experimental wells. Second, average maximum RFU response is calculated for the positive control wells (agonist wells).
(In general: A change in cytosolic calcium serves as a functional read-out for many receptors and channels.)
For `Cc1cnc(-n2cc(C(=O)NCC34CC5CC(CC(C5)C3)C4)c(C)n2)nc1C(N)=O` [Compound 96, 2-{4-[(adamantan-1-ylmethyl)carbamoyl]-3-methyl-1H-pyrazol-1-yl}-5-methylpyrimidine-4-carboxamide], the IC50 (commonly the concentration needed to halve the response being measured) is no more than 2000 nM.
On the same count and under the same terms, next, `Cc1cnc(-n2cc(C(=O)NCC3(c4ccc(C(F)(F)F)cc4)CCCCC3)c(C)n2)nc1N` [Compound 170, 1-(4-amino-5-methylpyrimidin-2-yl)-3-methyl-N-({1-[4-(trifluoromethyl)phenyl]cyclohexyl}methyl)-1H-pyrazole-4-carboxamide]: no more than 2000 nM.
Still for that read-out and setting: then `Cc1nn(-c2cnccn2)cc1C(=O)NCC(CC(C)C)c1ccc(C(F)(F)F)cc1` (stereo not drawn) [Compound 174, 3-methyl-N-{4-methyl-2-[4-(trifluoromethyl)phenyl]pentyl}-1-pyrazin-2-yl-1H-pyrazole-4-carboxamide], with no more than 2000 nM; and `Cc1nccnc1-n1cc(C(=O)NCC2(c3cccnc3)CCCCC2)c(C(F)(F)F)n1` [Compound 186, 1-(3-methylpyrazin-2-yl)-N-[(1-pyridin-3-ylcyclohexyl)methyl]-3-(trifluoromethyl)-1H-pyrazole-4-carboxamide], with no more than 2000 nM.
The same measure, in the same setting: then `CCCCCCCC(CNC(=O)c1cn(-c2ncccn2)nc1C(F)(F)F)c1ccccc1` (stereo not drawn) [Compound 208, N-(2-phenylnonyl)-1-pyrimidin-2-yl-3-(trifluoromethyl)-1H-pyrazole-4-carboxamide], with no more than 2000 nM.
As to `Cc1cnc(-n2cc(C(=O)NCC34CC5CC(CC(C5)C3)C4)c(C)n2)nc1-c1ccccc1` [Compound 93, N-(adamantan-1-ylmethyl)-3-methyl-1-(5-methyl-4-phenylpyrimidin-2-yl)-1H-pyrazole-4-carboxamide], the concentration for half-maximal inhibition (IC50) is no more than 2000 nM.
Same read-out and setting: then `CCc1nc(-c2ncccn2)sc1C(=O)NCC1(c2ccc(Cl)nc2)CCCCC1` [Compound 298, N-{[1-(6-chloropyridin-3-yl)cyclohexyl]methyl}-4-ethyl-2-pyrimidin-2-yl-1,3-thiazole-5-carboxamide], with no more than 2000 nM.
Take `CCc1nc(-c2ncccn2)sc1C(=O)NCc1ccc(F)cc1Cl` [Compound 231, N-(2-chloro-4-fluorobenzyl)-4-ethyl-2-pyrimidin-2-yl-1,3-thiazole-5-carboxamide]: the half-maximal inhibitory concentration (IC50) was no more than 2000 nM.
For `CCc1nc(-c2ncccn2)sc1C(=O)NCC(CC(C)C)c1ccc(C)cc1` (stereo not drawn) [Compound 275, 4-ethyl-N-[4-methyl-2-(4-methylphenyl)pentyl]-2-pyrimidin-2-yl-1,3-thiazole-5-carboxamide], the IC50 is no more than 2000 nM.
The same measure, in the same setting: next, `CC1(C)C2CC[C@@H](CNC(=O)c3cn(-c4ncccn4)nc3C(F)(F)F)C1C2` (stereo partly drawn) [Compound 194, N-{[(2R)-6,6-dimethylbicyclo[3.1.1]hept-2-yl]methyl}-1-pyrimidin-2-yl-3-(trifluoromethyl)-1H-pyrazole-4-carboxamide]: no more than 2000 nM; `O=C(NCC(CCC1CCCCC1)c1ccccc1)c1cn(-c2ncccn2)nc1C(F)(F)F` (stereo not drawn) [Compound 214, N-(4-cyclohexyl-2-phenylbutyl)-1-pyrimidin-2-yl-3-(trifluoromethyl)-1H-pyrazole-4-carboxamide]: no more than 2000 nM; `Cc1nn(-c2nccnc2N)cc1C(=O)NCC1(c2ccc(C(F)(F)F)cc2)CCCCC1` [Compound 182, 1-(3-aminopyrazin-2-yl)-3-methyl-N-({1-[4-(trifluoromethyl)phenyl]cyclohexyl}methyl)-1H-pyrazole-4-carboxamide]: no more than 2000 nM.
The same measure, in the same setting: then `CCc1nc(-c2ncccn2)sc1C(=O)NCC(CC(C)C)c1ccc(C(F)(F)F)cc1` (stereo not drawn) [Compound 220, 4-ethyl-N-{4-methyl-2-[4-(trifluoromethyl)phenyl]pentyl}-2-pyrimidin-2-yl-1,3-thiazole-5-carboxamide], with no more than 2000 nM; and `Cc1cnc(-n2cc(C(=O)NCC34CC5CC(CC(C5)C3)C4)c(C)n2)nc1C(=O)N1CCC[C@@H](N)C1` [Compound 105, N-(adamantan-1-ylmethyl)-1-(4-{[(3R)-3-aminopiperidin-1-yl]carbonyl}-5-methylpyrimidin-2-yl)-3-methyl-1H-pyrazole-4-carboxamide], with no more than 2000 nM; and `Nc1nc(-n2cc(C(=O)NCC3(N4CCOCC4)CCCCC3)c(C(F)(F)F)n2)ncc1F` [Compound 144, 1-(4-amino-5-fluoropyrimidin-2-yl)-N-[(1-morpholin-4-ylcyclohexyl)methyl]-3-(trifluoromethyl)-1H-pyrazole-4-carboxamide], with no more than 2000 nM.
As for `Cc1nc(-c2ncccn2)sc1C(=O)NCC(CC(C)C)c1ccc(C(F)(F)F)nc1` (stereo not drawn) [Compound 306, 4-methyl-N-{4-methyl-2-[6-(trifluoromethyl)pyridin-3-yl]pentyl}-2-pyrimidin-2-yl-1,3-thiazole-5-carboxamide], the IC50 was no more than 2000 nM.
Still for that read-out and setting: then `COc1cnc(-n2cc(C(=O)NCC3(c4cccnc4)CCCCC3)c(C(F)(F)F)n2)nc1` [Compound 191, 1-(5-methoxypyrimidin-2-yl)-N-[(1-pyridin-3-ylcyclohexyl)methyl]-3-(trifluoromethyl)-1H-pyrazole-4-carboxamide], with no more than 2000 nM; and `O=C(NCC12CC3CC(CC(C3)C1)C2)c1cn(-c2cc(=O)[nH]cn2)nc1C(F)(F)F` [Compound 153, N-(adamantan-1-ylmethyl)-1-(6-oxo-1,6-dihydropyrimidin-4-yl)-3-(trifluoromethyl)-1H-pyrazole-4-carboxamide], with no more than 2000 nM.
Still for that read-out and setting: then `CCCCCCC(CNC(=O)c1cn(-c2ncccn2)nc1C(F)(F)F)c1ccccc1` (stereo not drawn) [Compound 212, N-(2-phenyloctyl)-1-pyrimidin-2-yl-3-(trifluoromethyl)-1H-pyrazole-4-carboxamide], with no more than 2000 nM.

Still in this experiment, the particulars now being: SH-SY5Y cells; 50% decrease in fluorescence response of cells exposed to 80 μM BzATP; flag after the MS data in Examples 1-2.
Consider `CN1CCN(C2(CNC(=O)c3sc(-c4ncccn4)nc3C(F)(F)F)CCCCCC2)CC1` [Compound 24, N-{[1-(4-methylpiperazin-1-yl)cycloheptyl]methyl}-2-pyrimidin-2-yl-4-(trifluoromethyl)-1,3-thiazole-5-carboxamide], for which the half-maximal inhibitory concentration (IC50) was no more than 2000 nM.
Still for that read-out and setting: then `Cc1nc(-c2cccnc2)sc1C(=O)NCC(CC(C)C)c1ccc(C(F)(F)F)cc1` (stereo not drawn) [Compound 30], with no more than 2000 nM; and `O=C(NCC12CC3CC(CC(C3)C1)C2)c1ccnn1Cc1ccccc1` [Compound 17, N-(Adamantan-1-ylmethyl)-1-benzyl-1H-pyrazole-5-carboxamide], with no more than 2000 nM; and `Cc1nc(-c2cccnc2)sc1C(=O)NCC1(c2ccc(F)cc2)CCCCC1` [Compound 34], with no more than 2000 nM.
Still for that read-out and setting: then `Cc1nc(-c2cccnc2)sc1C(=O)NCC1(c2ccc(C(F)(F)F)cc2)CCCCC1` [Compound 32, N-({1-[4-(trifluoromethyl)phenyl]cyclohexyl}methyl)-4-methyl-2-pyridin-3-yl-1-,3-thiazole-5-carboxamide], with no more than 2000 nM; and `Cn1nc(-c2ccccc2)cc1C(=O)NCC1(c2ccc(Cl)cc2)CCCCC1` [Compound 21, 1-Methyl-3-phenyl-N-[1-(4-chlorophenyl)cyclohexyl]methyl-1H-pyrazole-5-carboxamide], with no more than 2000 nM.
The same measure, in the same setting: then `Cc1nc(-c2cccnc2)sc1C(=O)NCC1(c2ccc(Cl)cc2)CCOCC1` [Compound 37, N-{[4-(4-Chlorophenyl)tetrahydro-2H-pyran-4-yl]methyl}-4-methyl-2-pyridin-3-yl-1,3-thiazole-5-carboxamide], with no more than 2000 nM; and `Cc1ccc(C2(CNC(=O)c3sc(-c4cccnc4)nc3C)CCCCC2)cn1` [Compound 40, N-{[1-(6-methylpyridin-3-yl)cyclohexyl]methyl}-4-methyl-2-pyridin-3-yl-1-,3-thiazole-5-carboxamide], with no more than 2000 nM.
